Entries after “also recorded” stand apart in the source; their conditions may differ. *1 amine or outer side, *2 acyl side, *3 side chain or, on linkers, in order; H or OH if unused. Where a SMILES comes first, the peptide text is derived from it. Bridges are numbered along the chain shown (N, C = ends). Roman numbers before positions name the chains, in order. [ ]: non-standard residue; d: D form. Actinocin(9to1) = Cc1c2oc3c(C)ccc(C(=O)[*:1])c3nc-2c(C(=O)[*:2])c(N)c1=O; NMeV = CN[C@H](C(=O)O)C(C)C; Sar = CNCC(=O)O
Tests used:
Type in all cases: cell-based, mouse
[1] = system: DRG neurons (axon vs. cell body compartment); assay: Campenot chamber local axon degeneration (anti-NGF in axon compartment)
Procedure: Teflon dividers (Tyler Research) were cleaned by washing in water and wiping them clean of any residual grease. Dividers were then soaked in Nochromix (Godax Laboratories)/sulfuric acid overnight, rinsed five times in distilled and autoclaved water (SQ water), boiled for 30 minutes, and then air-dried before use
Mouse laminin (5 μg/ml in sterile filtered water; Invitrogen) was added to PDL coated 35 mm dishes (BD Biosciences) and they were incubated for 1 hour at 37° C., followed by two rinses in SQ water. The dishes were vacuum-dried and then air-dried in a laminar flow hood for 15 minutes. Prepared dishes were then scored with a pin rake (Tyler Research). […] High vacuum grease (VWR) was added to each Teflon divider under a dissection scope. The laminin coated PDL dishes were inverted and dropped onto the Teflon divider, with additional pressure added by use of a toothpick in the non-track-containing regions. Dishes were incubated for 1 hour at 37° C. Five hundred microliters of NBM+MC (50 ng/ml NGF) solution was added to each of the side compartments, and a grease barrier was added in front of the center cell slot.
Free E13.5 spinal cords were dissected from mouse embryos and placed into NBM+MC (25 ng/ml NGF) solution. DRGs were detached from the spinal cord with a tungsten needle. An NBM+MC-lubricated P200 pipette was used to move DRGs into a 1.5 ml tube. DRGs were pelleted with a tabletop centrifuge for 30 seconds. The supernate was discarded and 0.05% Trypsin/EDTA (cold) was added. The pellet was resolubilized with a pipette and incubated at 37° C. for 15 minutes with constant agitation (650 RPM). The sample was again centrifuged and the supernate discarded. The pellet was resuspended in warm NBM+MC (50 ng/ml NGF) solution and triturated with a flamed glass pipette 20 times, followed by trituration with a fire-bored glass pipette another 20 times. The samples were again centrifuged and the resulting pellets were resuspended in 0.5 ml NBM+MC (50 ng/ml NGF) solution. The cells were diluted to a final concentration of 2.5×10^6 cells/ml. The cell suspensions were loaded into a 1 ml syringe with a 22 gauge needle. The center slot of the Campenot divider was filled using the syringe (to a volume of at least 50 μl). The Campenot chamber was incubated overnight at 37° C. 2.5 ml NGF+MC (50 ng/ml NGF) solution was added to the center compartment and the grease gate was removed. The outer medium (cell body compartment) was replaced after three days with 2.5 ml NBM+MC medium (with 25 ng/ml NGF). After five days in culture, one distal compartment was washed three times with warmed NBM+MC (no NGF) solution. After the third wash, 500 μl NBM+MC (no NGF) solution was added to the axon compartment in combination with either 0.5% DMSO or an inhibitor. The cell body compartment was replaced with 2.5 ml NBM+MC medium (with 25 ng/ml NGF) containing either 0.5% DMSO or inhibitor.
After 28 hours of anti-NGF antibody treatment, 8% PFA/30% sucrose solution (see above) was added directly to the culture medium at a 1:1 dilution and incubated for 30 minutes. The Teflon divider was removed after the first 15 minutes of addition. The system was washed once with 2.5 ml PBS prior to immunostaining. Neurons were blocked in 5% BSA/0.2% triton in PBS for 30 minutes. The primary antibody Tuj1 (Covance) was added to a final dilution of 1:1000 in PBS containing 2% BSA and incubated overnight at 4° C. The dish was washed once with PBS. […] The dish was washed twice with PBS, and a 22×22 mm coverslip (VWR) was added with 350 μl of fluoromount G (Electron Microscopy Sciences). The neurons were visualized by use of a fluorescence microscope.
As described above, E13.5 DRGs were isolated and grown for 5 days in a Campenot chamber.

[2] = system: DRGs; assay: anti-NGF antibody (NGF withdrawal) screen for inhibitors of axon degeneration in DRG explants; conditions: inhibitor 100 μM or 10 μM added 1 hour before 25 μg/ml anti-NGF; 20 hours; actin stain
Procedure: The anti-NGF antibody model described above in Example 1 was used in a screen for inhibitors of neuron or axon degeneration. A library of more than 400 small molecules (Tocris Bioscience) was tested to see which, if any, modulate degeneration observed in the presence of anti-NGF antibodies.
Mouse E13.5 embryos were dissected and placed into L15 medium (Invitrogen). The spinal cord was dissected out from the embryos with DRGs attached. The spinal cords with DRGs attached were placed into L15 medium+5% goat serum (Gibco) on ice. The DRGs were removed using a tungsten needle and the remaining spinal cord was disposed of. Eight well slides were filled with N3-F12 solution (23 ml Ham's F12, 1 ml N3 supplement, and 1 ml 1 M glucose) to which was added 25 ng/ml NGF (Roche). (N3 supplement was made by dilution of N3 100× concentrate, which was made by mixing the following ingredients, in the following order: 5.0 ml Hank's buffered saline solution (HBSS; Ca, Mg free; Invitrogen), 1.0 ml bovine serum albumin (10 mg/ml in HBSS=150 μm), 2.0 ml Transferrin (T1147-1G, human, 100 mg/ml in HBSS=1.1 mM), 1.0 ml sodium selenite (S9133-1MG, 0.01 mg/ml in HBSS 58 μM), 0.4 ml putrescine dihydrochloride (P5780-5G, 80 mg/ml in HBSS=500 mM), 0.2 ml progesterone (P8783-5G, 0.125 mg/ml in absolute ethanol=400 μM), 0.02 ml corticosterone (C2505-500MG, 2 mg/ml in absolute ethanol=5.8 mM), 0.1 ml triiodothyonine, sodium salt (T6397-100MG, 0.2 mg/ml in 0.01 N NaOH=300 μM), 0.4 ml insulin (16634-250MG, bovine pancreas, 241 U/mg, 25 mg/ml in 20 mM HCl=4.4 mM), for a total volume of 10.02 ml (can be stored at −20° C.). An N3 supplement stock was made by combining the following: 10 ml Pen/Strep (100×, Gibco), 10 ml glutamine (200 mM, Gibco), 10 ml MEM vitamins (100×, Gibco), 10 ml N3 concentrate (100×, see above), for a total volume of 40 ml. The mixture was filter sterilized using a 0.22 μm filter, and 1-2 ml aliquots were stored at −20° C.).
The DRGs were sectioned into halves and placed in the center of each well of an 8-chamber slide (BD Biocoat PDL/Laminin coated glass, Becton Dickinson). The DRGs were permitted to attach to the slide at room temperature for 5-10 minutes, followed by an overnight incubation at 37° C. Inhibitors of choice were added at a concentration of 100 μM (top row) or 10 μM (bottom row) 1 hour before adding anti NGF antibodies. The anti-NGF antibodies were added to the right half of the slide (4 wells) at a concentration of 25 μg/ml. After incubation for 20 hours at 37° C., the slides were fixed with 30% sucrose/8% paraformaldehyde (PFA) by adding 250 μl of the fix solution directly to the 250 μl of culture medium. (To make the 30% sucrose/8% PFA solution, the following ingredients were added to a 600 ml beaker including a stir bar: 250 ml 16% PFA (cat#15710-S, Electron Microscopy Sciences), 50 ml 10×PBS pH 7.4, and 150 g sucrose. The solution was mixed under low heat until dissolved, and then 6-8 drops of 1 M NaOH were added to bring the pH to 7.4. The volume was then brought to 500 ml with water in a graduated cylinder. The solution was mixed well, placed in aliquots, and frozen.) The s ides were fixed for 30 minutes, followed by washing once with PBS. All cells were labeled with an actin stain (Alexa-568 conjugated phalloidin; 1:40; Invitrogen), a membrane dye (DiO; 1:200; Invitrogen), and a DNA stain (Hoechst 33258; 1:10,000; Invitrogen) in 0.1% Triton and 1% goat serum for 2 hours at room temperature. […]

[3] = system: DRG explants; assay: pan-JNK inhibitors in NGF withdrawal assay on DRG explants; conditions: for concentration at which most protective: DRG explants, NGF withdrawal; for protection of DRG explants from NGF-dependent degeneration: treated with anti-NGF and inhibitor
Procedure: If DLK inhibition protects neurons from degeneration through limiting the phosphorylation of JNK2 and JNK3, then inhibitors of JNK2 or JNK3 should also protect neurons from cell death and axon degeneration. The ability of direct JNK inhibition to protect neurons against NGF withdrawal-dependent degeneration was also assessed. DRG explants were treated with anti-NGF and either pan-JNK inhibitor JNKV or JNKVIII, prior to assessment in the NGF withdrawal assay described above.

[4] = system: DRGs; assay: G-protein/GPCR inhibitors in NGF withdrawal-induced degeneration in DRGs; conditions: 0.1 μM, 1 μM, 10 μM or 100 μM (FIGS. 49 and 50)
Procedure: The assays described herein identified several inhibitors of G-proteins and G-protein coupled receptors (GPCRs) that decrease degeneration in neurons. Experiments were performed in DRGs to verify the role of G-proteins and GPCRs in degeneration pathways. The experimental protocols used in these experiments are the same as those described in Example 14. Pertussis toxin and SCH 202676 were purchased from Tocris Bioscience.

[5] = system: cerebellar granule neurons (CGNs); assay: serum deprivation/KCl reduction degeneration of cerebellar granule neurons; conditions: 5 μM; 5 mM KCl, 24 hours
[6] = inhibitor 5 μM in axon compartment
[7] = inhibitor 5 μM in cell body compartment

COc1ccc(CNC(=O)Nc2ncc([N+](=O)[O-])s2)cc1 [AR-A014418]
Axon Compartment (protection of NGF-deprived axons) ([1]; inhibitor 20 μM in axon compartment): No (1) | Cell Body Compartment (protection of NGF-deprived axons) ([1]; inhibitor 20 μM in cell body compartment): Yes (1)

Cc1c2oc3c(C)ccc(C(=O)N[C@@H]4C(=O)N[C@H](C(C)C)C(=O)N5CCC[C@H]5C(=O)N(C)CC(=O)N(C)[C@@H](C(C)C)C(=O)O[C@@H]4C)c3nc-2c(C(=O)N[C@@H]2C(=O)N[C@H](C(C)C)C(=O)N3CCC[C@H]3C(=O)N(C)CC(=O)N(C)[C@@H](C(C)C)C(=O)O[C@@H]2C)c(N)c1=O [Actinomycin D] (I: T[dV]P[Sar][NMeV] / II: T[dV]P[Sar][NMeV]; ester I:1-I:C, II:1-II:C; linker I:N-II:N via Actinocin(9to1))
formation of varicosities in locally NGF-deprived axons [1]: large number of axons with varicosities, as well as fragmented axons | Axon Compartment (protection of NGF-deprived axons) ([1]; inhibitor 15 μM in axon compartment): No (4) | Axon Compartment (protection of NGF-deprived axons) ([1]; inhibitor 15 μM in axon compartment, listed as Act D): failed to prevent degeneration | Cell Body Compartment (protection of NGF-deprived axons) ([1]; inhibitor 15 μM in cell body compartment): Yes (4) | Cell Body Compartment (protection of NGF-deprived axons) ([1]; inhibitor 15 μM in cell body compartment, listed as Act D): did not degenerate; also recorded: protected from local degeneration

OC(CN1CCNCC1)Cn1c2ccc(Br)cc2c2cc(Br)ccc21 (centres unmarked) [Bax Channel Blocker]
Comments (observations on compounds found to protect against neurodegeneration) [2]: Cell bodies detach

C[C@@H]1C[C@@H]([C@H](O)CC2CC(=O)NC(=O)C2)C(=O)[C@@H](C)C1 [Cycloheximide]
Axon Compartment (protection of NGF-deprived axons) [1, 6]: No (2) | Cell Body Compartment (protection of NGF-deprived axons) [1, 7]: Yes (2)

C=C[C@@]1(C)CC(=O)[C@]2(O)[C@@]3(C)[C@@H](O)CCC(C)(C)[C@@H]3[C@H](O)[C@H](OC(C)=O)[C@@]2(C)O1 [Forskolin]
Axon Compartment (protection of NGF-deprived axons) ([1]; inhibitor 3 μM in axon compartment): Yes (2) | Cell Body Compartment (protection of NGF-deprived axons) ([1]; inhibitor 3 μM in cell body compartment): Yes (2)

O=C1NC(=O)C(c2cn(CCCO)c3ncccc23)=C1c1cnccn1 [GSK3 inhibitor XI]
Axon Compartment (protection of NGF-deprived axons) ([1]; inhibitor 30 μM in axon compartment, anti-NGF on axons 28 hours, number in parentheses not explained): No (2) | Cell Body Compartment (protection of NGF-deprived axons) ([1]; inhibitor 30 μM in cell body compartment, anti-NGF on axons 28 hours, number in parentheses not explained): Yes (2)

CCOc1nc(NC(=O)Cc2cc(OC)ccc2OC)cc(N)c1C#N [JNKVIII]
concentration at which most protective [3]: 4 µM | protection of DRG explants from NGF-dependent degeneration [3]: able to protect

N#C/C(=C1/Nc2ccccc2S1)c1ccnc(NCCc2cccnc2)n1 [JNKV]
concentration at which most protective [3]: 5 µM | protection of DRG explants from NGF-dependent degeneration [3]: able to protect

C=C[C@@]1(C)CC(=O)[C@]2(O)[C@@]3(C)[C@@H](O)CCC(C)(C)[C@@H]3[C@H](OC(=O)CCN(C)C)[C@H](OC(C)=O)[C@@]2(C)O1 [NKH 477]
Comments (observations on compounds found to protect against neurodegeneration) [2]: Partial

C[S+]([O-])c1ccc(-c2nc(-c3ccc(F)cc3)c(-c3ccncc3)[nH]2)cc1.Cl (centres unmarked) [SB 203580 HCl]
Comments (observations on compounds found to protect against neurodegeneration) [2]: Partial

CN=c1nc(-c2ccccc2)n(-c2ccccc2)s1 [SCH 202676]
NGF withdrawal-induced degeneration in DRGs [4]: decreases

O=C1c2ccccc2-c2n[nH]c3cccc1c23 [SP600125]
protection of cerebellar granule neurons from serum deprivation/KCl reduction [5]: protect | Axon Compartment (protection of NGF-deprived axons) [1, 6]: Yes (1) | Cell Body Compartment (protection of NGF-deprived axons) [1, 7]: Yes (1) | Axon Compartment (protection of NGF-deprived axons) ([1]; inhibitor 10 μM in axon compartment): Yes (1) | Cell Body Compartment (protection of NGF-deprived axons) ([1]; inhibitor 10 μM in cell body compartment): Yes (1)

C[C@@H](NC(=O)/C(C#N)=C/c1ccc(O)c(O)c1)c1ccccc1 [Tyrphostin B44]
Comments (observations on compounds found to protect against neurodegeneration) [2]: Partial

CCN(c1ccccc1)c1cc(NC)[n+](C)c(C)n1 [ZD7288]
Axon Compartment (protection of NGF-deprived axons) [1, 6]: No (3) | Cell Body Compartment (protection of NGF-deprived axons) [1, 7]: Yes (3)
